These results are taken from patent US5254582A, “Antitumor compositions and methods” (Eli Lilly and Company, priority 1992, dated 1993).

For series [1], the system named is HXGC3 human colon adenocarcinoma xenograft. Briefly: percent inhibition of tumor growth and mortality in mice bearing HXGC3 human colon adenocarcinoma xenografts, oral. The class given is in vivo. Conditions: daily for 10 days. The source says:
(§1) Two of the tumor models used for showing the antineoplastic activity of the sulfonylurea of this invention were the human colon xenografts, HXGC3 and VRC5. J. A. Houghton and D. M. Taylor, British Journal of Cancer, 37:213-223 (1978). These tumors were obtained from St. Jude's Children's Research Hospital and have been widely used as human tumor models.
(§2) First passage tumors were stored in liquid nitrogen, using standard techniques. The transplanted tumor was reestablished from the Tumor Bank every six months or as needed. The tumor was maintained by serial passage twice weekly in nude mice.
(§3) In the procedures utilized here, the tumor was removed from passage animals and minced into 1- to 3-mm cubic fragments using sterile techniques. Tumor pieces were checked for sterility using both Antibiotic medium 1 and Brain Heart Infusion (Difco, Detroit, Mi.). The tumor pieces were implanted into the recipient CDl Nu/Nu mice subcutaneously in an axillary site by trochar.
(§4) Drug therapy on the appropriate schedule was initiated seven days after tumor implantation. The compound being tested was mixed with 2.5% Emulphor EL620 from GAF Corporation (1:40 dilution in 0.9% saline). The total dosage volume for each administration was 0.5 mL. All animals were weighed at the beginning and end of administration of the subject compounds. Food and water were provided ad libitum.
(§5) Each control group and each dosage level of the treated groups consisted of 10 mice selected at random from the pool of implanted animals. The formulations were administered orally by gavage with the use of an 18-gauge needle. Compounds were dosed daily for 10 days.
(§6) The tumor was measured five days after treatment ended with two dimensional measurements (width and length) of the tumor taken using digital electronic calipers interfaced to a microcomputer. J. F. Worzalla, et al., Investigational New Drugs, 8:241-251 (1990). Tumor weights were calculated from these measurements using the following formula:
(§7) Tumor weight (mg)=[tumor length (mm)×[tumor width (mm)]^2 ]
(§8) At least one control group of an equal number of mice was treated with the same volume of 2.5% Emulphor only. The percent inhibition is determined by subtracting the ratio of the mean tumor size of the test group relative to the control group from one and multiplying the result by 100.
(§9) The results of several experiments in mice bearing the HXGC3 and VRC5 human colon adenocarcinomas when the instant compounds were administered orally are provided in Table I. In the Table, column 1 describes the particular human tumor xenograft being studied; column 2 gives the dosage level of the compound of Formula I in milligrams per kilogram of body weight; column 3 describes the percent inhibition of tumor growth; and column 4 tallies the number of mice which died during the course of the experiment relative to the total number of animals in the group.
On the technique in general: Xenograft models place foreign cells or tissue in a host animal.

In series [2] the test system is VRC5 human colon adenocarcinoma xenograft. Description: percent inhibition of tumor growth and mortality in mice bearing VRC5 human colon adenocarcinoma xenografts, oral. The following applies: daily for 10 days. The format is in vivo.
Excerpt: as §1, §2, §3, §4, §5, §6, §7, §8, §9

Series [3] concerns transplanted human tumors. Description: activity against transplanted human tumors in mice bearing different xenograft tumors. The format is in vivo.
Excerpt: as §1

The nature of series [4]: toxicological study in male Fischer 344 rats, morphological, hematological and pathological studies. The class given is in vivo, rat (male Fischer 344). Conditions: rat, 65 to 1000 mg/kg, oral gavage, daily for 14 days. The protocol:
For these experiments thirty male Fischer 344 rats were administered varying dosages of a formulation containing the compound of Formula I. These formulations contained between 65 and 1000 mg of the active ingredient per kilogram of body weight of the rat, in combination with a suitable excipient, usually containing 10% acacia. The compounds were administered orally by gavage. The compounds were dosed daily for 14 days. All animals were weighed at the beginning and end of administration of the subject compounds. Food and water were provided ad libitum.
Upon completion of the testing regimen, morphological and hematological studies were performed.

The conditions of series [5]: cited from earlier work.
For series [6] the following is noted: phase I clinical studies; cited from earlier work.
For series [7] the following is noted: in vivo; cited from earlier work.

With `O=C(Nc1ccc(Cl)c(Cl)c1)NS(=O)(=O)c1ccc2c(c1)CCO2` [compound of Formula I, N-[[(3,4-dichlorophenyl)amino]carbonyl]-2,3-dihydrobenzofuran-5-sulfonamide], the “Percent Inhibition of tumor growth” value in series [1] (150 mg/kg) stood at 81%; in series [1] (300 mg/kg) it was 98%; in series [1] (600 mg/kg), 98%; in series [1] (1200 mg/kg) it was 99%; in series [2] (150 mg/kg) it was 97%; in series [2] (300 mg/kg) it was 98%. Moreover, the “Percent Inhibition of tumor growth” value in series [2] (600 mg/kg) and in series [2] (1200 mg/kg) was 100% in each case. Further, the “Toxic/Total (mice which died relative to total number in group)” value in series [1] (150 mg/kg), in series [1] (300 mg/kg), in series [1] (600 mg/kg), in series [1] (1200 mg/kg), in series [2] (150 mg/kg) and in series [2] (300 mg/kg) was 0/10 each time. Besides, the “Toxic/Total (mice which died relative to total number in group)” value in series [2] (600 mg/kg) and in series [2] (1200 mg/kg) was 0/10 in each case. The therapeutic index entry in series [3] (in vivo) is on record as “high therapeutic index”. The “activity against transplanted human tumors in vivo” value in series [3] (mice bearing different xenograft tumors) is given as “active against transplanted human tumors in vivo”. For the same compound, the hemolytic anemia result in series [4] was “absence of hemolytic anemia”. Moreover, in series [4], the pathological tissue effects result is “effectiveness against tissues with a high mitotic index, including lymph nodes, thymus, gut, testis, and bone marrow”. In series [4], the unexpected tissue changes result is recorded as “Unexpected tissue changes were not observed”.

Regarding `O=C(Nc1ccc(Cl)cc1)NS(=O)(=O)c1ccc2c(c1)CCC2` [sulofenur, N-(indan-5-sulfonyl)-N'-(4-chlorophenyl)urea], in series [5] (animal trials, urine), the main urinary metabolites entry was “mono-hydroxy- and mono-ketoindanyl metabolites”. In addition, in series [5] (mice, rats, dogs, and monkeys), the adsorption and metabolism result was “good adsorption and extensive metabolism”. Besides, in series [6], the “major metabolites in patients” value is 1-hydroxy- and 1-ketoindansulfonylureas. The dose-limiting toxicity entry in series [7] was “hemolytic anemia”.
